Results taken from patent US5470852A, “Tetrahydroprotoberberine quaternary ammonium compounds useful in for treating arrhythmia” (priority 1991, dated 1995).
Read-outs that look alike come from different tables or passages of the source.

Assays:
[1] = tested on: Langendorff's perfused rat hearts; test: Lasting antiarrhythmic action after po administration, hearts removed and mounted on Langendorff's apparatus; format: in vivo; conditions: 10 mg/kg po at 1 hr before experiment (FIG. 4)
Description: 1, 3 and 6 hours after the administration of 100 mg/kg of I13 by p.o. to rats, the hearts were removed and mounted onto Langendorff's apparatus. […] (see FIG. 4)
FIG. 4. Influence of po I13 and mexiletine on the time course of reperfusion-induced arrhythmias in Langendorff's perfused rat hearts

rabbits = test: Electrically-induced ventricular fibrillation threshold (VFT) in rabbits; format: in vivo, rabbit
[2] = tested on: cardiovascular activities / arrhythmia; conditions: cited from earlier work; for cardiovascular activities: Fukuda H. et al
anaesthetized rats [3] = test: animal or person; conditions: Rattus norvegicus
anaesthetized rats [4] = conditions: for Arrhythmic scores / Antiarrhythmic effect: X ± SD; for Incidence of VF: n=10; for Death / animals with VF / animals without VF: of n=10
dogs = test: Ouabain-induced arrhythmia in dogs; format: in vivo, dog; conditions: for Incidence of arrhythmia: I13 iv 3 mg/kg, lidocaine iv 12 mg/kg
Description: (iv, 12 mg/kg) on ouabain induced arrhythmia in dogs
(Ouabain administration for 30 min)

Cc1cccc(C)c1OCC(C)N (stereo not shown) [mexiletine, reference compound]
ke [1]: 0.075

CCN(CC)CC(=O)Nc1c(C)cccc1C [Lidocaine, reference compound]
VFT Before (rabbits; baseline, iv 15 mg/kg group): 5.6 ± 0.9 volt
VFT After (rabbits; iv 15 mg/kg): 8.8 ± 1.6 volt
ΔVFT (rabbits; iv 15 mg/kg): 3.3 ± 0.9 volt
oral administration ([2]; clinical use): can not be administered orally
prevention of ventricular fibrillation ([2]; clinical use): can not effectively prevent ventricular fibrillation
suppression of arrhythmia ([2]; clinical use): can effectively suppress arrhythmia
ED50 (anaesthetized rats [3]; iv): 2.23 mg/kg
Arrhythmic scores (anaesthetized rats [4]; iv 1.0 mg/kg): 5.3 ± 0.8
Antiarrhythmic effect (anaesthetized rats [4]; iv 1.0 mg/kg, coronary occlusion 5 min): 1.0 ± 1.4
Antiarrhythmic effect (anaesthetized rats [4]; iv 1.0 mg/kg, coronary occlusion 10 min): 0.38 ± 0.23
Incidence of VF (anaesthetized rats [4]; iv 1.0 mg/kg): 50%
Death (anaesthetized rats [4]; iv 1.0 mg/kg): 0
animals with VF (anaesthetized rats [4]; iv 1.0 mg/kg): 3
animals without VF (anaesthetized rats [4]; iv 1.0 mg/kg): 7
Antiarrhythmic effect (anaesthetized rats [4]; iv 1.0 mg/kg, reperfusion 0.17 min): 3.6 ± 1.3
Antiarrhythmic effect (anaesthetized rats [4]; iv 1.0 mg/kg, reperfusion 0.33 min): 4.4 ± 1.5
Antiarrhythmic effect (anaesthetized rats [4]; iv 1.0 mg/kg, reperfusion 0.5 min): 5.3 ± 0.9
Antiarrhythmic effect (anaesthetized rats [4]; iv 1.0 mg/kg, reperfusion 1 min): 2.1 ± 1.7
Antiarrhythmic effect (anaesthetized rats [4]; iv 1.0 mg/kg, reperfusion 2 min): 1.3 ± 1.0
Antiarrhythmic effect (anaesthetized rats [4]; iv 1.0 mg/kg, reperfusion 3 min): 0.6 ± 1.0
Antiarrhythmic effect (anaesthetized rats [4]; iv 1.0 mg/kg, reperfusion 5 min): 0.2 ± 0.4
Antiarrhythmic effect (anaesthetized rats [4]; iv 1.0 mg/kg, reperfusion 6 min): 0.2 ± 0.4
Antiarrhythmic effect (anaesthetized rats [4]; iv 1.0 mg/kg, reperfusion 7 min): 0.2 ± 0.4
Antiarrhythmic effect (anaesthetized rats [4]; iv 1.0 mg/kg, reperfusion 10 min): 0.2 ± 0.4
Antiarrhythmic effect (anaesthetized rats [4]; iv 1.0 mg/kg, reperfusion 15 min): 0.06 ± 0.2
Antiarrhythmic effect (anaesthetized rats [4]; iv 1.0 mg/kg, reperfusion 25 min): 0
Arrhythmic scores (anaesthetized rats [4]; iv 3.0 mg/kg): 1.7 ± 1.8
Antiarrhythmic effect (anaesthetized rats [4]; iv 3.0 mg/kg, coronary occlusion 5 min): 0.2 ± 0.3
Antiarrhythmic effect (anaesthetized rats [4]; iv 3.0 mg/kg, coronary occlusion 10 min): 0.5 ± 0.6
Incidence of VF (anaesthetized rats [4]; iv 3.0 mg/kg): 0%
Death (anaesthetized rats [4]; iv 3.0 mg/kg): 0
animals with VF (anaesthetized rats [4]; iv 3.0 mg/kg): 0
animals without VF (anaesthetized rats [4]; iv 3.0 mg/kg): 10
Antiarrhythmic effect (anaesthetized rats [4]; iv 3.0 mg/kg, reperfusion 0.17 min): 1.2 ± 1.4
Antiarrhythmic effect (anaesthetized rats [4]; iv 3.0 mg/kg, reperfusion 0.33 min): 1.7 ± 1.8
Antiarrhythmic effect (anaesthetized rats [4]; iv 3.0 mg/kg, reperfusion 0.5 min): 1.1 ± 1.4
Antiarrhythmic effect (anaesthetized rats [4]; iv 3.0 mg/kg, reperfusion 1 min): 0.8 ± 1.3
Antiarrhythmic effect (anaesthetized rats [4]; iv 3.0 mg/kg, reperfusion 2 min): 0.4 ± 1.0
Antiarrhythmic effect (anaesthetized rats [4]; iv 3.0 mg/kg, reperfusion 3 min): 0.3 ± 0.5
Antiarrhythmic effect (anaesthetized rats [4]; iv 3.0 mg/kg, reperfusion 5 min): 0.4 ± 0.7
Antiarrhythmic effect (anaesthetized rats [4]; iv 3.0 mg/kg, reperfusion 6 min): 0.3 ± 0.7
Antiarrhythmic effect (anaesthetized rats [4]; iv 3.0 mg/kg, reperfusion 7 min): 0.2 ± 0.4
Antiarrhythmic effect (anaesthetized rats [4]; iv 3.0 mg/kg, reperfusion 10 min): 0.2 ± 0.3
Antiarrhythmic effect (anaesthetized rats [4]; iv 3.0 mg/kg, reperfusion 15 min): 0.1 ± 0.3
Antiarrhythmic effect (anaesthetized rats [4]; iv 3.0 mg/kg, reperfusion 25 min): 0.1 ± 0.3
Antiarrhythmic effect (anaesthetized rats [4]; po 10 mg/kg, coronary occlusion 5 min): 0.5 ± 0.5
Antiarrhythmic effect (anaesthetized rats [4]; po 10 mg/kg, coronary occlusion 10 min): 0.40 ± 0.22
Antiarrhythmic effect (anaesthetized rats [4]; po 10 mg/kg, reperfusion 0.17 min): 2.6 ± 1.6
Antiarrhythmic effect (anaesthetized rats [4]; po 10 mg/kg, reperfusion 0.33 min): 2.6 ± 1.8
Antiarrhythmic effect (anaesthetized rats [4]; po 10 mg/kg, reperfusion 0.5 min): 2.5 ± 2.3
Antiarrhythmic effect (anaesthetized rats [4]; po 10 mg/kg, reperfusion 1 min): 2.2 ± 1.9
Antiarrhythmic effect (anaesthetized rats [4]; po 10 mg/kg, reperfusion 1.5 min): 2.4 ± 2.2
Antiarrhythmic effect (anaesthetized rats [4]; po 10 mg/kg, reperfusion 3 min): 1.5 ± 2.5
Antiarrhythmic effect (anaesthetized rats [4]; po 10 mg/kg, reperfusion 4 min): 1.1 ± 1.9
Antiarrhythmic effect (anaesthetized rats [4]; po 10 mg/kg, reperfusion 5 min): 1.0 ± 1.9
Antiarrhythmic effect (anaesthetized rats [4]; po 10 mg/kg, reperfusion 6 min): 0.8 ± 1.6
Antiarrhythmic effect (anaesthetized rats [4]; po 10 mg/kg, reperfusion 7 min): 1.3 ± 2.5
Antiarrhythmic effect (anaesthetized rats [4]; po 10 mg/kg, reperfusion 15 min): 1.4 ± 2.9
Antiarrhythmic effect (anaesthetized rats [4]; po 10 mg/kg, reperfusion 25 min): 1.4 ± 2.9
Antiarrhythmic effect (anaesthetized rats [4]; po 30 mg/kg, coronary occlusion 5 min): 0.9 ± 0.7
Antiarrhythmic effect (anaesthetized rats [4]; po 30 mg/kg, coronary occlusion 10 min): 1.0 ± 0.9
Antiarrhythmic effect (anaesthetized rats [4]; po 30 mg/kg, reperfusion 0.17 min): 1.7 ± 1.5
Antiarrhythmic effect (anaesthetized rats [4]; po 30 mg/kg, reperfusion 0.33 min): 1.8 ± 1.6
Antiarrhythmic effect (anaesthetized rats [4]; po 30 mg/kg, reperfusion 0.5 min): 1.0 ± 1.0
Antiarrhythmic effect (anaesthetized rats [4]; po 30 mg/kg, reperfusion 1 min): 0.6 ± 0.9
Antiarrhythmic effect (anaesthetized rats [4]; po 30 mg/kg, reperfusion 1.5 min): 0.5 ± 0.6
Antiarrhythmic effect (anaesthetized rats [4]; po 30 mg/kg, reperfusion 3 min): 0.2 ± 0.2
Antiarrhythmic effect (anaesthetized rats [4]; po 30 mg/kg, reperfusion 4 min): 0.2 ± 0.2
Antiarrhythmic effect (anaesthetized rats [4]; po 30 mg/kg, reperfusion 5 min): 0.2 ± 0.2
Antiarrhythmic effect (anaesthetized rats [4]; po 30 mg/kg, reperfusion 6 min): 0.2 ± 0.3
Antiarrhythmic effect (anaesthetized rats [4]; po 30 mg/kg, reperfusion 7 min): 0.2 ± 0.3
Antiarrhythmic effect (anaesthetized rats [4]; po 30 mg/kg, reperfusion 15 min): 0.3 ± 0.3
Antiarrhythmic effect (anaesthetized rats [4]; po 30 mg/kg, reperfusion 25 min): 0.2 ± 0.3
Incidence of arrhythmia (dogs; 0 min (before administration)): 97 ± 8%
Incidence of arrhythmia (dogs; 5 min): 83 ± 41%
Incidence of arrhythmia (dogs; 10 min): 74 ± 42%
Incidence of arrhythmia (dogs; 15 min): 55 ± 46%
Incidence of arrhythmia (dogs; 20 min): 42 ± 45%
Incidence of arrhythmia (dogs; 25 min): 16 ± 24%
Incidence of arrhythmia (dogs; 30 min): 10 ± 17%
Incidence of arrhythmia (dogs; 35 min): 8 ± 10%
Incidence of arrhythmia (dogs; 40 min): 28 ± 25%
Incidence of arrhythmia (dogs; 45 min): 10 ± 14%
Incidence of arrhythmia (dogs; 50 min): 8 ± 15%
Incidence of arrhythmia (dogs; 60 min): 10 ± 21%
reoccurrence of arrhythmia (dogs; within 4 hour period): reoccurrences of VPBs, VT and VF have been detected

O=C(NCC1CCCCN1)c1cc(OCC(F)(F)F)ccc1OCC(F)(F)F (stereo not shown) [Flecainide]
side effects [2]: marked side effects of pulmonary fibrosis and thyroid function change
effect upon arrhythmia ([2]; clinical use): good effect upon arrhythmia

COc1cc2c(cc1OC)-c1cc3ccc(OC)c(OC)c3c[n+]1CC2 [palmatine]
cardiovascular activities [2]: highly potent cardiovascular activities

COc1ccc2cc3[n+](cc2c1O)CCc1cc2c(cc1-3)OCO2 [berberubine]
cardiovascular activities [2]: highly potent cardiovascular activities

COc1ccc2cc3[n+](cc2c1OC)CCc1cc2c(cc1-3)OCO2 [berberine]
cardiovascular activities [2]: highly potent cardiovascular activities

CCCNCC(O)COc1ccccc1C(=O)CCc1ccccc1 (stereo not shown) [propafenon, reference compound]
ED50 (anaesthetized rats [3]; po): 19.3 mg/kg
Arrhythmic scores (anaesthetized rats [4]; po 10 mg/kg): 2.6 ± 1.6
Incidence of VF (anaesthetized rats [4]; po 10 mg/kg): 20%
Death (anaesthetized rats [4]; po 10 mg/kg): 2
animals with VF (anaesthetized rats [4]; po 10 mg/kg): 1
animals without VF (anaesthetized rats [4]; po 10 mg/kg): 7
Arrhythmic scores (anaesthetized rats [4]; po 30 mg/kg): 1.8 ± 1.6
Incidence of VF (anaesthetized rats [4]; po 30 mg/kg): 0%
Death (anaesthetized rats [4]; po 30 mg/kg): 0
animals with VF (anaesthetized rats [4]; po 30 mg/kg): 0
animals without VF (anaesthetized rats [4]; po 30 mg/kg): 10
